Results on 54 compounds are retold here after PubChem BioAssay AID806 (SRMLSC, 2007).

The source made the active and inactive calls. No rule for the calls is given here.

In this test the test system is virus-infected cells, CPE inhibition, dose response. Briefly: PubChem AID 806. As to conditions: for EC90: measured here: EC90 CPE inhibition; for CC50: measured here: cytotoxicity, cell viability IC50.

In the case of `COc1ccc(OC)c(-n2c(SCC(=O)NCc3ccco3)nnc2-c2c[nH]c3ccccc23)c1`, the EC50 was > 60 µM (inactive), the EC90 was > 60 µM and the CC50 is > 60 µM.
With `O=C(Nc1cccc2ncccc12)c1cc2ccccc2o1`, the EC50 is > 60 µM (inactive), the 90% effect concentration (EC90) was > 60 µM and the half-maximal cytotoxic concentration (CC50) is > 60 µM.
For `COc1cccc(C(=O)Nc2ccc(-c3nnc(-c4ccco4)o3)cc2)c1`, the EC50 is > 60 µM (inactive), the EC90 is > 60 µM and the CC50 was > 60 µM.
In the case of `O=Nc1c(O)n(Cc2ccc(Cl)cc2)c2ccccc12`, the EC50 is > 60 µM (inactive), the EC90 is > 60 µM and the 50% cytotoxic concentration (CC50) was > 60 µM.
Consider `CCCOc1ccc(C(=O)C(CN2CCOCC2)c2ccccc2)cc1` (stereo unspecified), for which the EC50 is > 60 µM (inactive), the EC90 is > 60 µM and the CC50 was > 60 µM.
Consider `Cc1c(C(=O)Nc2ccc(Cl)cn2)oc2ccccc12`, for which the EC50 is > 60 µM (inactive), the concentration for an effect of 90% (EC90) is > 60 µM and the CC50 is > 60 µM.
In the case of `Cc1nc2scc(-c3ccco3)c2c(=O)n1/N=C/N(C)C`, the EC50 is > 60 µM (inactive), the EC90 is > 60 µM and the CC50 is > 60 µM.
As to `O=C(Nc1ccc2nc3n(c(=O)c2c1)CCCCC3)c1ccccc1Cl`, the EC50 is > 60 µM (inactive), the EC90 was > 60 µM and the half-maximal cytotoxic concentration (CC50) was > 60 µM.
As to `O=c1[nH]c2ccccc2n1Cc1ccc(Cl)cc1`, the EC50 was > 60 µM (inactive), the EC90 was > 60 µM and the CC50 was > 60 µM.
With `COCCNC(=O)C(c1ccccc1)N(CCOC)C(=O)Cn1nnc2ccccc21` (stereo unspecified), the EC50 was > 60 µM (inactive), the EC90 is > 60 µM and the CC50 was > 60 µM.
In the case of `Cc1cc(NC(=O)C2CC(c3ccc(F)cc3)=NO2)n(-c2ccccc2)n1` (stereo unspecified), the EC50 is > 60 µM (inactive), the EC90 is > 60 µM and the CC50 is > 60 µM.
As for `CCCNC(=O)c1noc2c1CCc1ccccc1-2`, the EC50 is > 60 µM (inactive), the EC90 is > 60 µM and the CC50 was > 60 µM.
With `CCOc1ccc(NC(=O)C2CCCCN2S(=O)(=O)c2ccccc2)cc1` (stereo unspecified), the EC50 was > 60 µM (inactive), the EC90 was > 60 µM and the 50% cytotoxic concentration (CC50) is > 60 µM.
On to `CC(c1ccco1)N(C(=O)COc1ccc(Cl)cc1)c1ccccn1` (stereo unspecified), for which the EC50 was > 60 µM (inactive), the EC90 is > 60 µM and the CC50 is > 60 µM.
`Clc1cccc(Nc2ncnc3c2cnn3-c2ccccc2)c1`: the EC50 is > 60 µM (inactive), the EC90 was > 60 µM and the CC50 is > 60 µM.
For `CCC(Oc1ccccc1)C(=O)Nc1ccc(-c2nnc(-c3ccco3)o2)cc1` (stereo unspecified), the EC50 was > 60 µM (inactive), the 90% effect concentration (EC90) is > 60 µM and the CC50 was > 60 µM.
Regarding `CCOc1ccccc1Nc1ncnc2c1cnn2-c1ccccc1`, the EC50 was > 60 µM (inactive), the EC90 is > 60 µM and the CC50 was > 60 µM.
For `O=C(CCS(=O)(=O)c1cccc2nsnc12)NCc1ccccc1Cl`, the EC50 was > 60 µM (inactive), the EC90 was > 60 µM and the 50% cytotoxic concentration (CC50) is > 60 µM.
For `O=C(CSc1ccc2nnc(-c3cccnc3)n2n1)NCc1ccco1`, the EC50 is > 60 µM (inactive), the EC90 is > 60 µM and the CC50 is > 60 µM.
In the case of `CCS(=O)(=O)Nc1cc(-c2nc3cccnc3s2)ccc1C`, the EC50 was > 60 µM (inactive), the concentration for an effect of 90% (EC90) is > 60 µM and the CC50 is > 60 µM.
In the case of `Cc1ccc(-n2ncc3c(Nc4cccc(C(=O)O)c4)ncnc32)cc1`, the EC50 is > 60 µM (inactive), the EC90 is > 60 µM and the cytotoxic concentration (CC50) is > 60 µM.
Consider `O=C(c1cc2ccccc2o1)n1nnc2ccccc21`, for which the EC50 is > 60 µM (inactive), the EC90 was > 60 µM and the cytotoxic concentration (CC50) is > 60 µM.
For `CN1c2ccsc2C(O)=C(C(=O)Nc2ccccc2)S1(=O)=O`, the EC50 was > 60 µM (inactive), the EC90 is > 60 µM and the CC50 is > 60 µM.
For `CCCCCn1c(=O)c(C(=O)Nc2c(C)n(C)n(-c3ccccc3)c2=O)c(O)c2ccccc21`, the EC50 was > 60 µM (inactive), the EC90 was > 60 µM and the CC50 is > 60 µM.
For the compound `Cc1nc2nc(-c3ccccc3)[nH]n2c(=O)c1Cc1ccccc1`, the EC50 is > 60 µM (inactive), the concentration for an effect of 90% (EC90) was > 60 µM and the CC50 is > 60 µM.
`COc1ccc(-c2nnc3ccc(SCC(=O)NCc4ccco4)nn23)cc1`: the EC50 was > 60 µM (inactive), the EC90 is > 60 µM and the 50% cytotoxic concentration (CC50) is > 60 µM.
Take `O=C(Nc1ccc2c(c1)CCC2)c1cc2ccccc2o1`: the EC50 is > 60 µM (inactive), the EC90 was > 60 µM and the CC50 was > 60 µM.
As for `COc1ccccc1Cn1c(=O)c2ccccc2n2c(Sc3ncnc4sccc34)nnc12`, the EC50 was > 60 µM (inactive), the EC90 is > 60 µM and the CC50 is > 60 µM.
In the case of `OCC#CCSc1nnc(-c2ccncc2)o1`, the EC50 is > 60 µM (inactive), the 90% effect concentration (EC90) was > 60 µM and the CC50 is > 60 µM.
`O=C(Nc1ccncc1)c1cc2ccccc2o1`: the EC50 was > 60 µM (inactive), the EC90 is > 60 µM and the CC50 was > 60 µM.
Take `CC(C)(C)NC(=O)c1cccc(NC(=O)c2ccc(NC(=O)c3ccco3)cc2)c1`: the EC50 was > 60 µM (inactive), the 90% effect concentration (EC90) was > 60 µM and the CC50 is > 60 µM.
Regarding `Cc1cccc(C)c1NC(=O)CCS(=O)(=O)c1cccc2nsnc12`, the EC50 was > 60 µM (inactive), the EC90 is > 60 µM and the CC50 is > 60 µM.
On to `COc1ccccc1NC(=O)c1cc2ccccc2o1`, for which the EC50 is > 60 µM (inactive), the EC90 is > 60 µM and the CC50 was > 60 µM.
For the compound `COCCNC(=O)C(c1ccccc1)N(C(=O)Cn1nnc2ccccc21)c1cccnc1` (stereo unspecified), the EC50 is > 60 µM (inactive), the EC90 is > 60 µM and the CC50 was > 60 µM.
On to `Cc1ccc(NC(=S)C2=C(O)c3sccc3N(C)S2(=O)=O)cc1`, for which the EC50 was 30.3 µM (inactive), the EC90 was > 60 µM and the CC50 was > 60 µM.
As to `O=C(CN1CCN(c2ncccn2)CC1)NCCC1=CCCCC1`, the EC90 was > 60 µM and the CC50 is > 60 µM.
As to `O=C(NCc1cccs1)c1ccc(N2CCCCC2)nc1`, the EC50 is > 60 µM (inactive), the EC90 was > 60 µM and the CC50 is > 60 µM.
For `O=C(CSc1ccc2nnc(-c3ccc(F)cc3)n2n1)NCc1ccco1`, the EC50 is > 60 µM (inactive), the EC90 is > 60 µM and the CC50 is > 60 µM.
Consider `CCCCSc1nnc(-c2ccc(C)cc2)o1`, for which the EC50 was > 60 µM (inactive), the EC90 was > 60 µM and the CC50 was > 60 µM.
Regarding `COc1cccc(NC(=O)C2CC(=O)OC23CCOC(C)(C)C3)c1` (stereo unspecified), the EC50 is > 60 µM (inactive), the EC90 was > 60 µM and the CC50 was > 60 µM.
In the case of `O=C(O)c1cccc(Nc2ncnc3c2cnn3-c2ccccc2)c1`, the EC50 is > 60 µM (inactive), the EC90 was > 60 µM and the CC50 is > 60 µM.
As for `COC(=O)CSc1nnc(-c2cccnc2)o1`, the EC50 is > 60 µM (inactive), the EC90 is > 60 µM and the CC50 was > 60 µM.
For the compound `O=C(Nc1cccnc1)c1cc2c(ccc3ccccc32)o1`, the EC50 was > 60 µM (inactive), the EC90 is > 60 µM and the CC50 was > 60 µM.
Turning to `O=C(C1CCCCN1S(=O)(=O)c1ccccc1)N1CCCCC1` (stereo unspecified), the EC50 is > 60 µM (inactive), the EC90 is > 60 µM and the CC50 is > 60 µM.
On to `CCC1CCCCN1C(=O)Nc1cccc(NC(=O)N2CCCCC2CC)c1` (stereo unspecified), for which the EC50 was > 60 µM (inactive), the EC90 was > 60 µM and the CC50 is > 60 µM.
For `CCSc1nnc([C@H](Cc2ccccc2)NC(=O)OC(C)(C)C)o1`, the EC50 was > 60 µM (inactive), the EC90 is > 60 µM and the CC50 was > 60 µM.
With `CSc1nnc(-c2ccc(Cl)cc2Cl)o1`, the EC50 was 48.5 µM (inactive), the EC90 is > 60 µM and the CC50 is > 60 µM.
Take `CCCCN(C(=O)Cn1nnc2ccccc21)C(C(=O)NCCOC)c1ccc(OC)cc1OC` (stereo unspecified): the EC50 is > 60 µM (inactive), the EC90 is > 60 µM and the CC50 is > 60 µM.
With `CC(C)(C)OC(=O)NCCc1nnc(SCc2ccc(Cl)cc2)o1`, the EC50 is > 60 µM (inactive), the EC90 is > 60 µM and the CC50 was > 60 µM.
Regarding `COC(=O)c1ccc(CSc2nnc3n(Cc4ccccc4OC)c(=O)c4ccccc4n23)o1`, the EC50 was > 60 µM (inactive), the EC90 was > 60 µM and the cytotoxic concentration (CC50) was > 60 µM.
For the compound `CC(C)c1ccc(C2NC(=O)NC3=C2CCc2ccccc23)cc1` (stereo unspecified), the EC50 is > 60 µM (inactive), the EC90 was > 60 µM and the cytotoxic concentration (CC50) is > 60 µM.
In the case of `N#CCCCSc1nnc(-c2ccccn2)o1`, the EC50 is > 60 µM (inactive), the EC90 is > 60 µM and the CC50 is > 60 µM.
`CCOC(=O)/C=c1\s/c(=C\c2ccccc2OC)c(=O)n1CC(=O)N1CCOCC1`: the EC50 was > 60 µM (inactive), the EC90 was > 60 µM and the CC50 is > 60 µM.
For `COc1ccc(-c2nc3nc(C)c(Cc4ccccc4)c(=O)n3[nH]2)cc1`, the EC50 was > 60 µM (inactive), the EC90 was > 60 µM and the 50% cytotoxic concentration (CC50) is > 60 µM.

The EC50 is the concentration needed to bring the measured effect to its halfway point. One may read the EC90 as the concentration at which the effect reaches the 90% level. A lower EC90 goes with an effect from little substance. What is called CC50 is the concentration at which the toxic effect on the cells reaches its halfway point.
